Measurements taken from patent US9499551B2, “Substituted pyrrolo[2,3-b]pyridines for treating cancer or inflammatory diseases” (Confluence Life Sciences, Inc., priority 2014, dated 2016).

How the values were obtained:
[1] = tested on: IL-6 Production in Human Peripheral Blood Mononuclear Cells (PBMC); assay: LPS stimulated IL-6 production in PBMC cells; format: cell-based; conditions: read-out: IL-6 Production Inhibition IC50
Experimental: LPS Stimulated IL-6 Production in PBMC Cells:
Lipopolysaccharide (LPS) stimulated IL-6 Production in Human Peripheral Blood Mononuclear Cells (PBMC): The cellular efficacy of compound candidates is determined using peripheral blood mononuclear cells purified from human whole blood, based upon the methods of Burnette et al. (2009) Pharmacology, 84:42-60. PBMC produce a number of cytokines (IL6, IL8, IL1β and TNFα) in response to stimulation with LPS. To induce the production of inflammatory mediators, PBMC are plated at a final concentration of 2×10^5 cells/well in a 96 well flat bottom plate in DMEM medium supplemented with 10% fetal bovine serum, 100 units/ml penicillin and 100 μg/ml streptomycin (Gibco BRL Life Technologies). Cells are treated with or without inhibitors for 1-3 hrs then stimulated with 100 ng/ml LPS (serotype 011:B4, Sigma) for an additional 3 hrs at 37° C. with 5% CO2. The supernatants are removed and stored at −20° C. until they are to be assayed. The levels of inflammatory mediators are determined using commercial MSD cytokine kits (Meso Scale Discovery) as per the manufacturer's instructions. Standard curves are based on 7 steps of 4× serial dilutions, with a wide dynamic range of 10000 pg/ml to 2.4 pg/ml, and a blank. Lower limit of detection (LLOD) is calculated at the commonly used 3× the standard deviation of the blank.

TAK1-TAB1 = target: T1, TAK1-TAB1 (Homo sapiens, UniProt O43318); assay: TAK1-TAB1 binding inhibitory potency (LanthaScreen competitive binding assay, kinase tracer-236); conditions: 10 nM TAK1-TAB1, 100 nM kinase tracer-236; read-out: TAK1-Tab Inhibition IC50
T1 sequence (O43318 with tags, fused parts or gaps limits assumed): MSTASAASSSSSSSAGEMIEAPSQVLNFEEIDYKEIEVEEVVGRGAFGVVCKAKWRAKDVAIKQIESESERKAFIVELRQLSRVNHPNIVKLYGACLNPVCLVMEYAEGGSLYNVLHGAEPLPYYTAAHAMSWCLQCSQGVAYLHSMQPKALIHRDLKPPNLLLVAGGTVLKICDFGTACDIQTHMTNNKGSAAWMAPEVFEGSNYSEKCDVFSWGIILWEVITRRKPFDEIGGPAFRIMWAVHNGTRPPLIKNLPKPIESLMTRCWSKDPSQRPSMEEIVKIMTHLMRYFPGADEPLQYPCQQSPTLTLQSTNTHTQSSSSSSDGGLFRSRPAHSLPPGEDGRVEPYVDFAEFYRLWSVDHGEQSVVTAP
Procedure, shortened: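 Compounds were tested for TAK1-TAB1 binding in a 384-well LanthaScreen competitive FRET assay. TAK1-TAB1 (10 nM) and Eu-anti-his antibody (2 nM) were preincubated with compound for two hours before adding 100 nM Alexa Fluor 647 kinase tracer-236. The buffer was 20 mM HEPES pH 7.5, 10 mM MgCl2, 0.01% BSA, 0.0005% Tween-20 and 2% DMSO. IC50 came from 4-parameter logistic fits of emission ratio over an 11-point series from 20 μM to 0.34 nM.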

Row | Compound | IC50 [1] [nM] | IC50 (TAK1-TAB1) [nM]
1 | CC(C)(O)COc1ccc(-c2cnc3[nH]cc(/C=C/C(N)=O)c3c2)cn1 [Example 291, (E)-3-(5-(6-(2-hydroxy-2-methylpropoxy)pyridin-3-yl)-1H-pyrrolo[2,3-b]pyridin-3-yl)acrylamide] | ≤ 1000 | ≤ 1000
2 | NC(=O)/C=C/c1c[nH]c2ncc(N3CCN(C(=O)C4CCCC4)CC3)cc12 [Example 278, (E)-3-(5-(4-(cyclopentane-carbonyl)piperazin-1-yl)-1H-pyrrolo[2,3-b]pyridin-3-yl)acrylamide] | > 1000 | ≤ 1000
3 | CC(C)Oc1ccnc2[nH]cc(/C=C/C(N)=O)c12 [Example 7, (E)-3-(4-Isopropoxy-1H-pyrrolo[2,3-b]pyridin-3-yl)acrylamide] | ≤ 1000 | ≤ 1000
4 | NC(=O)/C=C/c1c[nH]c2ncc(Cc3ccccc3)cc12 [Example 39] | ≤ 1000 | ≤ 1000
5 | NC(=O)/C=C/c1c[nH]c2ncc(-c3ccc(C(=O)N4CCCC4)nc3)cc12 [Example 281, (E)-3-(5-(6-(pyrrolidine-1-carbonyl)pyridin-3-yl)-1H-pyrrolo[2,3-b]pyridin-3-yl)acrylamide] | > 1000 | ≤ 1000
6 | Cn1cc(-c2cnc3[nH]cc(/C=C/C(N)=O)c3c2)cn1 [Example 5, (E)-3-(5-(1-Methyl-1H-pyrazol-4-yl)-1H-pyrrolo[2,3-b]pyridin-3-yl)acrylamide] | ≤ 1000 | ≤ 1000
7 | CN1CCN(c2cc(-c3cnc4[nH]cc(/C=C/C(N)=O)c4c3)ccn2)CC1 [Example 273, (E)-3-(5-(2-(4-methylpiperazin-1-yl)pyridin-4-yl)-1H-pyrrolo[2,3-b]pyridin-3-yl)acrylamide] | ≤ 1000 | ≤ 1000
8 | NC(=O)/C=C/c1c[nH]c2ncc(N3CCN(C(=O)c4ccccc4)CC3)cc12 [Example 267, (E)-3-(5-(4-benzoylpiperazin-1-yl)-1H-pyrrolo[2,3-b]pyridin-3-yl)acrylamide] | > 1000 | ≤ 1000
9 | CC(C)Oc1ccc(-c2cnc3[nH]cc(/C=C/C(N)=O)c3c2)cn1 [Example 260, (E)-3-(5-(6-isopropoxypyridin-3-yl)-1H-pyrrolo[2,3-b]pyridin-3-yl)acrylamide] | ≤ 1000 | ≤ 1000
10 | CC(=O)c1cccc(-c2cnc3[nH]cc(/C=C/C(N)=O)c3c2)c1 [Example 244, (E)-3-(5-(3-acetylphenyl)-1H-pyrrolo[2,3-b]pyridin-3-yl)acrylamide] | ≤ 1000 | ≤ 1000
11 | COc1ccc(-c2cnc3[nH]cc(/C=C/C(N)=O)c3c2)cn1 [Example 20, (E)-3-(5-(6-methoxypyridin-3-yl)-1H-pyrrolo[2,3-b]pyridin-3-yl)acrylamide] | ≤ 1000 | ≤ 1000
12 | NC(=O)/C=C/c1c[nH]c2ncc(-c3ccc(C(=O)N4CCCCC4)cc3)cc12 [Example 262, (E)-3-(5-(4-(piperidine-1-carbonyl)phenyl)-1H-pyrrolo[2,3-b]pyridin-3-yl)acrylamide] | ≤ 1000 | ≤ 1000
13 | CC(=O)/C=C/C(=O)Nc1c[nH]c2ncc(-c3ccccc3)cc12 [Example 240, (E)-4-oxo-N-(5-phenyl-1H-pyrrolo[2,3-b]pyridin-3-yl)pent-2-enamide] | ≤ 1000 | ≤ 1000
14 | CC1CCN(C(=O)c2ccc(-c3cnc4[nH]cc(/C=C/C(N)=O)c4c3)cn2)CC1 [Example 265, (E)-3-(5-(6-(4-methylpiperidine-1-carbonyl)pyridin-3-yl)-1H-pyrrolo[2,3-b]pyridin-3-yl)acrylamide] | > 1000 | ≤ 1000
15 | CC(C)(C)c1cc(-c2cnc3[nH]cc(/C=C/C(N)=O)c3c2)cc(C(C)(C)C)c1 [Example 258, (E)-3-(5-(3,5-di-tert-butylphenyl)-1H-pyrrolo[2,3-b]pyridin-3-yl)acrylamide] | ≤ 1000 | ≤ 1000
16 | CC(C)Oc1ccc(-c2cnc3[nH]cc(/C=C/C(N)=O)c3n2)cn1 [Example 284, (E)-3-(2-(6-isopropoxypyridin-3-yl)-5H-pyrrolo[2,3-b]pyrazin-7-yl)acrylamide] | ≤ 1000 | ≤ 1000

Row | Compound | IC50 [1] [nM] | IC50 (TAK1-TAB1) [nM]
17 | COc1cccc(-c2cnc3[nH]cc(/C=C/C(N)=O)c3c2)c1 [Example 11, (E)-3-(5-(3-Methoxyphenyl)-1H-pyrrolo[2,3-b]pyridin-3-yl)acrylamide] | ≤ 1000 | ≤ 1000
18 | CC(C)C(=O)NC1CN(c2cnc3[nH]cc(/C=C/C(N)=O)c3c2)C1 [Example 283, (E)-3-(5-(3-isobuty-ramidoazetidin-1-yl)-1H-pyrrolo[2,3-b]pyridin-3-yl)acrylamide] | ≤ 1000 | ≤ 1000
19 | Cn1cc(-c2cnc3[nH]cc(/C=C/C(N)=O)c3n2)cn1 [Example 6, (E)-3-(2-(1-Methyl-1H-pyrazol-4-yl)-5H-pyrrolo[2,3-b]pyrazin-7-yl)acrylamide] | ≤ 1000 | ≤ 1000
20 | CC(C)NC(=O)c1ccc(-c2cnc3[nH]cc(/C=C/C(N)=O)c3c2)cn1 [Example 280, (E)-5-(3-(3-amino-3-oxoprop-1-en-1-yl)-1H-pyrrolo[2,3-b]pyridin-5-yl)-N-isopropyl-picolinamide] | ≤ 1000 | ≤ 1000
21 | N#Cc1ccc(-c2cnc3[nH]cc(/C=C/C(N)=O)c3c2)cn1 [Example 261, (E)-3-(5-(6-cyanopyridin-3-yl)-1H-pyrrolo[2,3-b]pyridin-3-yl)acrylamide] | ≤ 1000 | ≤ 1000
22 | NC(=O)/C=C\C(=O)Nc1c[nH]c2ncc(-c3ccccc3)cc12 [Example 234, N^1--(5-phenyl-1H-pyrrolo[2,3-b]pyridin-3-yl)maleamide] | ≤ 1000 | > 1000
23 | CC(O)c1cncc(-c2cnc3[nH]cc(/C=C/C(N)=O)c3c2)c1 (centres unmarked) [Example 299, (E)-3-(5-(5-(1-hydroxyethyl)pyridin-3-yl)-1H-pyrrolo[2,3-b]pyridin-3-yl)acrylamide] | > 1000 | ≤ 1000
24 | N#Cc1cccc(-c2cnc3[nH]cc(/C=C/C(N)=O)c3c2)c1 [Example 18, 3-[5-(3-Cyano-phenyl)-1H-pyrrolo[2,3-b]pyridin-3-yl]-acrylamide] | ≤ 1000 | ≤ 1000
25 | NC(=O)/C=C/c1c[nH]c2ncc(-c3ccc(N4CCCC4)nc3)cc12 [Example 250, (E)-3-(5-(6-(pyrrolidin-1-yl)pyridin-3-yl)-1H-pyrrolo[2,3-b]pyridin-3-yl)acrylamide] | ≤ 1000 | ≤ 1000
26 | NC(=O)/C=C/c1c[nH]c2ncc(N3CCN(C(=O)c4ncc(F)cc4F)CC3)cc12 [Example 288, (E)-3-(5-(4-(3,5-difluoropicolinoyl)piperazin-1-yl)-1H-pyrrolo[2,3-b]pyridin-3-yl)acrylamide] | > 1000 | ≤ 1000
27 | CCOCCN1CCN(c2cnc3[nH]cc(/C=C/C(N)=O)c3c2)CC1 [Example 271, (E)-3-(5-(4-(2-ethoxyethyl)piperazin-1-yl)-1H-pyrrolo[2,3-b]pyridin-3-yl)acrylamide] | ≤ 1000 | ≤ 1000
28 | NC(=O)/C=C/c1c[nH]c2ncc(-c3cncnc3)cc12 [Example 286, (E)-3-(5-(pyrimidin-5-yl)-1H-pyrrolo[2,3-b]pyridin-3-yl)acrylamide] | > 1000 | ≤ 1000
29 | C[C@@H](O)CNC(=O)c1ccc(-c2cnc3[nH]cc(/C=C/C(N)=O)c3c2)cc1 [Example 294, (R,E)-4-(3-(3-amino-3-oxoprop-1-en-1-yl)-1H-pyrrolo[2,3-b]pyridin-5-yl)-N-(2-hydroxypropyl) benzamide] | > 1000 | ≤ 1000
30 | CC(C)(C)OC(=O)N1CCN(c2cnc3[nH]cc(/C=C/C(N)=O)c3c2)CC1 [Example 266, (E)-tert-butyl 4-(3-(3-amino-3-oxoprop-1-en-1-yl)-1H-pyrrolo[2,3-b]pyridin-5-yl)piperazine-1-carboxylate] | ≤ 1000 | ≤ 1000
31 | NC(=O)/C=C/c1c[nH]c2ncc(-c3cnc4ccccc4c3)nc12 [Example 263, (E)-3-(2-(quinolin-3-yl)-5H-pyrrolo[2,3-b]pyrazin-7-yl)acrylamide] | ≤ 1000 | ≤ 1000
